Consider 2 substances from patent publication US10563214B2, “Use of micropeptides for promoting plant growth” (UNIVERSITE TOULOUSE III-PAUL SABATIER, priority 2014, dated 2020).

One experiment concerns miR164a. Put plainly: Northern blot analysis of the accumulation of miR164a in roots treated with synthetic peptide. In kind it is in vivo, Arabidopsis thaliana. The conditions noted are these: 0.1 μM synthetic peptide solubilized in water vs water control, U6 loading control, FIG. 1. On the procedure:
The photographs show the results of a Northern blot analysis of the accumulation of miR164a in roots treated with water (control, photograph on the left) or with 0.1 μM of a synthetic peptide, having a sequence identical to that of miPEP164a, solubilized in water (0.1 μM miPEP164a). The RNA U6 is used as a loading control, allowing the quantity of miR164a to be quantified.
The A. thaliana Col-0 plants are cultivated on MS basic medium supplemented with 10 g/l of sucrose.
Northern blot analysis was carried out according to the protocol described in Lauressergues et al. Plant J, 72(3):512-22, 2012.
The biological samples were homogenized in a buffer containing 0.1 M of NaCl, 2% SDS, 50 mM of Tris-HCl (pH 9), 10 mM of EDTA (pH 8) and 20 mM of mercaptoethanol, and the RNA was extracted twice with a phenol/chloroform mixture and precipitated with ethanol.
The RNA was loaded on PAGE 15% gel and transferred onto a nylon membrane (HybondNX, Amersham). The RNA was hybridized with an oligonucleotide probe, with radioactive labelling at its end, for detecting the RNA U6 or for miR164a.
The hybridizations were carried out at 55° C. The hybridization signals were quantified using a phosphorimager (Fuji) and normalized with the signal of the probe specific to the RNA U6.

The subject of experiment [1] is Arabidopsis thaliana. Put plainly: A. thaliana growth test, watering with miPEP164a. In kind it is in vivo. The conditions noted are these: watered and sprayed. The method, then: Watering was carried out every 2-3 days with water for the control plants and with water containing 0.1 μM or 1 μM of synthetic peptide (the sequence of which is identical to miPEP164a or to miPEP165a) for the test plants.

In another experiment the test system is AtmiR319a. Put plainly: qPCR of AtmiR319a relative expression in plants overexpressing AtmiPEP319a. In kind it is in vivo, Arabidopsis thaliana. The conditions noted are these: plant overexpressing AtmiPEP319a (35S promoter) vs control plant; n=10; FIG. 7. On the procedure: The error bar corresponds to the standard error of the mean (number of individuals=10).
The RNA was extracted using the reagent Tri-Reagent (MRC) according to the manufacturer's instructions, apart from precipitation of the RNA, which was carried out with 3 volumes of ethanol. Reverse transcription of the RNA was carried out using the stem-loop specific primer RTprimer in combination with hexamers in order to carry out reverse transcription of RNA of high molecular weight. Briefly, 1 μg of RNA was added to the stem-loop specific primer (0.2 μM), hexamer (500 ng), buffer RT (1×), the enzyme SuperScript Reverse transcriptase (SSIII) (one unit), dNTPs (0.2 mM each), DTT (0.8 mM) in a final reaction mixture of 25 μl. In order to carry out the reverse transcription, a pulsed reverse transcription reaction was carried out (40 repetitions of the following cycle: 16° C. for 2 minutes, 42° C. for one minute and 50° C. for one second, followed by final inactivation of the reverse transcription at 85° C. for 5 minutes).
The total RNA of the roots of M. truncatula or of the leaves of tobacco was extracted using the extraction kit RNeasy Plant Mini Kit (Qiagen). Reverse transcription was carried out using the reverse transcriptase SuperScript II (Invitrogen) starting from 500 ng of total RNA. Three repetitions (n=3) were carried out, each with two technical repetitions. […]

Experiment [2] relates to Arabidopsis thaliana. Put plainly: A. thaliana growth test, watering and spraying with miPEP319a. In kind it is in vivo. The conditions noted are these: 0.1 μM synthetic peptide, watered and sprayed, after 3 weeks of growth vs water control; FIG. 8. The method, then: Arabidopsis thaliana seeds were germinated on GiFi, and then were transferred onto compost and were grown for 3 weeks.
Watering was carried out every 2-3 days and spraying was carried out every day, with water for the control plants and with water containing 0.1 μM of synthetic peptide (the sequence of which is identical to miPEP319a) for the test plants.

[3] abbreviates: 1 μM synthetic peptide, after 39 days of growth vs water control, FIG. 3.

“Also recorded” adds a separate entry of the source.

On to “miPEP164a: Peptide encoded by miORF on pri-miR164a of A. thaliana, SEQ ID NO: 2, MPSWHGMVLLPYVKHTHASTHTHTHNIYGCACELVFH (listed as Arabidopsis thaliana)”, for which, in the experiment with miR164a, the “accumulation of miR164a” value is reported as “increase in the accumulation of miR164a”. Further, the plant growth result with Arabidopsis thaliana [1] (0.1 μM synthetic peptide, after 3 weeks of growth vs water control, FIG. 2) was “increases the plant's growth significantly; also recorded: increases the plants' growth significantly”; in the experiment with Arabidopsis thaliana [1] (setting [3]) it was “increases the plant's growth and number of flowers significantly”. Moreover, the number of flowers result in the experiment on Arabidopsis thaliana [1] (setting [3]) was “increases the plant's growth and number of flowers significantly”.
Take “miPEP319a: Peptide encoded by miORF on pri-miR319a of A. thaliana, SEQ ID NO: 10, MNIHTYHHLLFPSLVFHQSSDVPNALSLHIHTYEYIIVVIDPFRITLAFR (listed as Arabidopsis thaliana)”: in the experiment on AtmiR319a, the “accumulation (relative expression) of AtmiR319a” value is “increase in the accumulation of Atmir319a”. Moreover, the plant growth entry with Arabidopsis thaliana [2] was “increases the plant's growth significantly”.
